Laboratory results taken from ChEMBL document CHEMBL3627674, “Discovery of wrightiadione as a novel template for the TrkA kinase inhibitors” (Bioorg Med Chem Lett, 2015).

Tests used:
[1] = molecular target: Macrophage colony-stimulating factor 1 receptor (Homo sapiens) (UniProt P07333); assay: Inhibition of CSF1R (unknown origin) assessed as remaining activity at 10 uM by high-throughput assay relative to control
[2] = molecular target: Serine/threonine-protein kinase ULK2 (Homo sapiens) (UniProt Q8IYT8); assay: Inhibition of ULK2 (unknown origin) assessed as remaining activity at 10 uM by high-throughput assay relative to control
[3] = molecular target: Focal adhesion kinase 1 (Homo sapiens) (UniProt Q05397); assay: Inhibition of FAK (unknown origin) assessed as remaining activity at 10 uM by high-throughput assay relative to control
[4] = molecular target: Mitogen-activated protein kinase kinase kinase 9 (Homo sapiens) (UniProt P80192); assay: Inhibition of MLK1 (unknown origin) assessed as remaining activity at 10 uM by high-throughput assay relative to control
[5] = molecular target: Receptor-type tyrosine-protein kinase FLT3 (Homo sapiens) (UniProt P36888); assay: Inhibition of FLT3 (unknown origin) assessed as remaining activity at 10 uM by high-throughput assay relative to control
[6] = molecular target: Serine/threonine-protein kinase pim-1 (Homo sapiens) (UniProt P11309); assay: Inhibition of PIM1 (unknown origin) assessed as remaining activity at 10 uM by high-throughput assay relative to control
[7] = molecular target: Non-receptor tyrosine-protein kinase TYK2 (Homo sapiens) (UniProt P29597); assay: Inhibition of TYK2 JH1 catalytic domain (unknown origin) assessed as remaining activity at 10 uM by high-throughput assay relative to control
[8] = system: Serine/threonine-protein kinase B-raf (Homo sapiens), P15056 [V600E]; assay: Inhibition of BRAF V600E mutant (unknown origin) assessed as remaining activity at 10 uM by high-throughput assay relative to control
[9] = molecular target: Mast/stem cell growth factor receptor Kit (Homo sapiens) (UniProt P10721); assay: Inhibition of KIT (unknown origin) assessed as remaining activity at 10 uM by high-throughput assay relative to control
[10] = system: Tyrosine-protein kinase ABL1 (Homo sapiens), P00519 [E255K]; assay: Inhibition of ABL1 E255K mutant phosphorylation (unknown origin) assessed as remaining activity at 10 uM by high-throughput assay relative to control
[11] = molecular target: Ephrin type-A receptor 2 (Homo sapiens) (UniProt P29317); assay: Inhibition of EPHA2 (unknown origin) assessed as remaining activity at 10 uM by high-throughput assay relative to control
[12] = molecular target: Angiopoietin-1 receptor (Homo sapiens) (UniProt Q02763); assay: Inhibition of TIE2 (unknown origin) assessed as remaining activity at 10 uM by high-throughput assay relative to control
[13] = molecular target: High affinity nerve growth factor receptor (Homo sapiens, UniProt P04629); assay: Inhibition of TrkA (unknown origin) by radiometric analysis in presence of [gamma-33P]-ATP
[14] = molecular target: Mitogen-activated protein kinase 8 (Homo sapiens) (UniProt P45983); assay: Inhibition of JNK1 (unknown origin) assessed as remaining activity at 10 uM by high-throughput assay relative to control
[15] = molecular target: Cyclin-dependent kinase 11B (Homo sapiens) (UniProt P21127); assay: Inhibition of CDK11 (unknown origin) assessed as remaining activity at 10 uM by high-throughput assay relative to control
[16] = molecular target: Ribosomal protein S6 kinase alpha-3 (Homo sapiens) (UniProt P51812); assay: Inhibition of RSK2 Kin.Dom1.1-N-terminal (unknown origin) assessed as remaining activity at 10 uM by high-throughput assay relative to control
[17] = molecular target: Serine/threonine-protein kinase PLK3 (Homo sapiens, UniProt Q9H4B4); assay: Inhibition of PLK3 (unknown origin) by radiometric analysis in presence of [gamma-33P]-ATP
[18] = molecular target: Mitogen-activated protein kinase 14 (Homo sapiens) (UniProt Q16539); assay: Inhibition of p38-alpha (unknown origin) assessed as remaining activity at 10 uM by high-throughput assay relative to control
[19] = system: Mast/stem cell growth factor receptor Kit (Homo sapiens), P10721 [V559D,T670I]; assay: Inhibition of KIT V559D/T670I double mutant (unknown origin) assessed as remaining activity at 10 uM by high-throughput assay relative to control
[20] = molecular target: ALK tyrosine kinase receptor (Homo sapiens) (UniProt Q9UM73); assay: Inhibition of ALK (unknown origin) assessed as remaining activity at 10 uM by high-throughput assay relative to control
[21] = molecular target: Serine/threonine-protein kinase B-raf (Homo sapiens) (UniProt P15056); assay: Inhibition of BRAF (unknown origin) assessed as remaining activity at 10 uM by high-throughput assay relative to control
[22] = molecular target: Dual specificity tyrosine-phosphorylation-regulated kinase 1B (Homo sapiens) (UniProt Q9Y463); assay: Inhibition of DYRK1B (unknown origin) assessed as remaining activity at 10 uM by high-throughput assay relative to control
[23] = molecular target: Serine/threonine-protein kinase PLK4 (Homo sapiens) (UniProt O00444); assay: Inhibition of PLK4 (unknown origin) assessed as remaining activity at 10 uM by high-throughput assay relative to control
[24] = system: Epidermal growth factor receptor (Homo sapiens), P00533 [L858R]; assay: Inhibition of EGFR L858R mutant (unknown origin) assessed as remaining activity at 10 uM by high-throughput assay relative to control; format: protein assay
[25] = molecular target: Serine/threonine-protein kinase PAK 2 (Homo sapiens) (UniProt Q13177); assay: Inhibition of PAK2 (unknown origin) assessed as remaining activity at 10 uM by high-throughput assay relative to control
[26] = molecular target: Cyclin-dependent kinase 16 (Homo sapiens) (UniProt Q00536); assay: Inhibition of PCTK1 (unknown origin) assessed as remaining activity at 10 uM by high-throughput assay relative to control
[27] = molecular target: Proto-oncogene tyrosine-protein kinase Src (Homo sapiens) (UniProt P12931); assay: Inhibition of SRC (unknown origin) assessed as remaining activity at 10 uM by high-throughput assay relative to control
[28] = molecular target: Aurora kinase A (Homo sapiens) (UniProt O14965); assay: Inhibition of AURKA (unknown origin) assessed as remaining activity at 10 uM by high-throughput assay relative to control
[29] = molecular target: Cyclin-dependent kinase 3 (Homo sapiens) (UniProt Q00526); assay: Inhibition of CDK3 (unknown origin) assessed as remaining activity at 10 uM by high-throughput assay relative to control
[30] = molecular target: Platelet-derived growth factor receptor alpha (Homo sapiens) (UniProt P16234); assay: Inhibition of PDGFRA (unknown origin) assessed as remaining activity at 10 uM by high-throughput assay relative to control
[31] = molecular target: Insulin receptor (Homo sapiens) (UniProt P06213); assay: Inhibition of INSR (unknown origin) assessed as remaining activity at 10 uM by high-throughput assay relative to control
[32] = molecular target: Tyrosine-protein kinase receptor UFO (Homo sapiens) (UniProt P30530); assay: Inhibition of AXL (unknown origin) assessed as remaining activity at 10 uM by high-throughput assay relative to control

Chain of Ephrin type-A receptor 2 (Homo sapiens) (P29317 whole entry): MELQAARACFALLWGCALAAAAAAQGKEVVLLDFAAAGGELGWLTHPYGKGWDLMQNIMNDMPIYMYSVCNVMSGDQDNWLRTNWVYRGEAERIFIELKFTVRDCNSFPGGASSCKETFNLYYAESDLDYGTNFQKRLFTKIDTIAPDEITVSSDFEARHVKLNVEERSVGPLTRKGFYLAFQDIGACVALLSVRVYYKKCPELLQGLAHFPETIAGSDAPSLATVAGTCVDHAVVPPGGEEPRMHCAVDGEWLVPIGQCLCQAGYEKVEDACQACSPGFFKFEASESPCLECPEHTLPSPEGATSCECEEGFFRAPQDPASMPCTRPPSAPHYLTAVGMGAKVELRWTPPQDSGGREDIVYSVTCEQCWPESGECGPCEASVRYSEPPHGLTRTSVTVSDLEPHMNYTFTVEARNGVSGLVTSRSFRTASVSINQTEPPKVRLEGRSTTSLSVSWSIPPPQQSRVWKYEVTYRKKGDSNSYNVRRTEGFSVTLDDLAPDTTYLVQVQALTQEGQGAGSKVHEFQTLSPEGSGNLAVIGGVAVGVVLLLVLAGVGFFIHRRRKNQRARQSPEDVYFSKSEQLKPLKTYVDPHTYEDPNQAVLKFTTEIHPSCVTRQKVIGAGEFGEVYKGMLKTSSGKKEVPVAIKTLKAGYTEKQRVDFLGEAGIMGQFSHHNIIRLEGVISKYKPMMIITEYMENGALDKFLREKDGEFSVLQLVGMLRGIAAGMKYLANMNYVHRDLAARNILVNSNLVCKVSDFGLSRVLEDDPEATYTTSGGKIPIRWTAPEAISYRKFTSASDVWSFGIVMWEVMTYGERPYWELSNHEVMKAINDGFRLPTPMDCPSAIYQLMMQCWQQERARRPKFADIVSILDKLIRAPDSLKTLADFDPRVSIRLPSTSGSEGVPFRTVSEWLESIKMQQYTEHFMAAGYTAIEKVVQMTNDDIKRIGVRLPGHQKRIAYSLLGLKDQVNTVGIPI
Chain of Aurora kinase A (Homo sapiens) (O14965 whole entry): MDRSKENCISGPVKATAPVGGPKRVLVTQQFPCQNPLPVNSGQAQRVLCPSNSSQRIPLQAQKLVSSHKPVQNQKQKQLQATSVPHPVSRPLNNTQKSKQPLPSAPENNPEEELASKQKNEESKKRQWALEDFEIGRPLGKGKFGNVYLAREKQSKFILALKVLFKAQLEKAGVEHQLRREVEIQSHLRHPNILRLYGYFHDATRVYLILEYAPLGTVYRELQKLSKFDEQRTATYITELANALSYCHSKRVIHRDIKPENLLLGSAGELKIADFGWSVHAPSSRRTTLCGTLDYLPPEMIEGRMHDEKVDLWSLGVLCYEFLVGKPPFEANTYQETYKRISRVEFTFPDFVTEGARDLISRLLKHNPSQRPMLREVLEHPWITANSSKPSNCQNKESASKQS
Chain of Angiopoietin-1 receptor (Homo sapiens) (Q02763 whole entry): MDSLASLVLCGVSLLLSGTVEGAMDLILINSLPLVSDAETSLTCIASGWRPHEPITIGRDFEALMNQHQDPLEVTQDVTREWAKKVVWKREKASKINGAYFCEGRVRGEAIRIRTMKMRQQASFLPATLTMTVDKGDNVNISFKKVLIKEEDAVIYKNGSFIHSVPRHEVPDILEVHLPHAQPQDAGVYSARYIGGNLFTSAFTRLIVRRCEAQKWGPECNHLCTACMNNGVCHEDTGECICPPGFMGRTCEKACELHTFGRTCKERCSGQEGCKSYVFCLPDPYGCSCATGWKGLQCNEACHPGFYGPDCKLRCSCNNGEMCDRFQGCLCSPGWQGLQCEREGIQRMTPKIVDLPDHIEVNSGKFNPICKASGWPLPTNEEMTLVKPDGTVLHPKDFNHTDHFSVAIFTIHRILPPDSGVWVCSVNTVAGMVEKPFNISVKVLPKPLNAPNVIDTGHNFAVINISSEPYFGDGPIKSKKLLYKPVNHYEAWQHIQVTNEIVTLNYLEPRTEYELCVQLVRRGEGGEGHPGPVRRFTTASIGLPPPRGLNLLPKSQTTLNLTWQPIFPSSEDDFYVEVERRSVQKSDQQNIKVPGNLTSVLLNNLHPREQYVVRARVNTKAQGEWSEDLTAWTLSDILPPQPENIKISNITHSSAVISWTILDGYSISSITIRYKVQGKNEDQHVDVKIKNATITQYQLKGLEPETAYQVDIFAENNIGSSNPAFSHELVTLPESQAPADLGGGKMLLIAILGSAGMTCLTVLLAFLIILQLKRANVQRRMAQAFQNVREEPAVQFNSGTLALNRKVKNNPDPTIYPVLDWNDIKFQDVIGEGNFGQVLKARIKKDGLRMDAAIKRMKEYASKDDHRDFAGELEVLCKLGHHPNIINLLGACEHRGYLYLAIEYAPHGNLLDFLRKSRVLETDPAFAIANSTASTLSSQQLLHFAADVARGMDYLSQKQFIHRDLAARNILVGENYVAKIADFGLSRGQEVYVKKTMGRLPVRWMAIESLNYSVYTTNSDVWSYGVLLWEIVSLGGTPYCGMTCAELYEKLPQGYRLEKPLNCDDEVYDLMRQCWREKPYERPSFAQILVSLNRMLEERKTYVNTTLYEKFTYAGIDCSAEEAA
Chain of Insulin receptor (Homo sapiens) (P06213 28-758 limits assumed): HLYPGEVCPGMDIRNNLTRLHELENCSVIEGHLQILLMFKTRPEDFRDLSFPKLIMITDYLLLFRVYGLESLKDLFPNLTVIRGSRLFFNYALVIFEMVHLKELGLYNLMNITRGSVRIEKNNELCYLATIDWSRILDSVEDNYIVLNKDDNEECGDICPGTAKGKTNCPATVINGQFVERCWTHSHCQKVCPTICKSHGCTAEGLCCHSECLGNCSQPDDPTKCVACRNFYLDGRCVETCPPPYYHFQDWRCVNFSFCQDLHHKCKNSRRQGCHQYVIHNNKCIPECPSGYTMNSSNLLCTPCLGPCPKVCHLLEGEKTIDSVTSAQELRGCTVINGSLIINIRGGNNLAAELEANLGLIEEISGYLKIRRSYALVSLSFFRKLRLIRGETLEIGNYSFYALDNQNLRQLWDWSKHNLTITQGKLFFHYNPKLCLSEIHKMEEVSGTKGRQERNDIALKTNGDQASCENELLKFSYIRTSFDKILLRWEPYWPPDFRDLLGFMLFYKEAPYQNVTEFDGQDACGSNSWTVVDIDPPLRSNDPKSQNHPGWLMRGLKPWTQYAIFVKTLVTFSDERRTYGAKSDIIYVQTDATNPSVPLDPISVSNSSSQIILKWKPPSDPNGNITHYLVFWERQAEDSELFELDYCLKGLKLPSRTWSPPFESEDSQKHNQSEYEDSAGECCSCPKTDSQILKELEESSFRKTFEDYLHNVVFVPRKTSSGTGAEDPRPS
Chain of Insulin receptor (Homo sapiens) (P06213 763-1382 limits assumed): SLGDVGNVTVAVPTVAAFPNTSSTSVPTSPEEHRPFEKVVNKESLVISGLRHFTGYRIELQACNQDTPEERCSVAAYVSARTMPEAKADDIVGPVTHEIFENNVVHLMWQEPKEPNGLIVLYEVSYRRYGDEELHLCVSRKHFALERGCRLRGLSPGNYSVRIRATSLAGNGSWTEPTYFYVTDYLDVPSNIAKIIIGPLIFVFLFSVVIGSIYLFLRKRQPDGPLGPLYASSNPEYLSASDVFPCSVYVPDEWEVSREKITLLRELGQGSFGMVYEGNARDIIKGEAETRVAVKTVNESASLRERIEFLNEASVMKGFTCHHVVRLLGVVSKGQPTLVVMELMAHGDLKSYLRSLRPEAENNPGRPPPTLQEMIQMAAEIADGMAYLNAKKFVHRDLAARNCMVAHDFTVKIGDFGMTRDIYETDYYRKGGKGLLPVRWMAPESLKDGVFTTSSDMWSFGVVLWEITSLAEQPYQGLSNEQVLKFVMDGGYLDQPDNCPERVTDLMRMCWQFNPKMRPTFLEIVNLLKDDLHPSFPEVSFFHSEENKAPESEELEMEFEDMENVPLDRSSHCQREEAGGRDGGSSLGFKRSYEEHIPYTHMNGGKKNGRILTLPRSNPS
Chain of Cyclin-dependent kinase 11B (Homo sapiens) (P21127 whole entry): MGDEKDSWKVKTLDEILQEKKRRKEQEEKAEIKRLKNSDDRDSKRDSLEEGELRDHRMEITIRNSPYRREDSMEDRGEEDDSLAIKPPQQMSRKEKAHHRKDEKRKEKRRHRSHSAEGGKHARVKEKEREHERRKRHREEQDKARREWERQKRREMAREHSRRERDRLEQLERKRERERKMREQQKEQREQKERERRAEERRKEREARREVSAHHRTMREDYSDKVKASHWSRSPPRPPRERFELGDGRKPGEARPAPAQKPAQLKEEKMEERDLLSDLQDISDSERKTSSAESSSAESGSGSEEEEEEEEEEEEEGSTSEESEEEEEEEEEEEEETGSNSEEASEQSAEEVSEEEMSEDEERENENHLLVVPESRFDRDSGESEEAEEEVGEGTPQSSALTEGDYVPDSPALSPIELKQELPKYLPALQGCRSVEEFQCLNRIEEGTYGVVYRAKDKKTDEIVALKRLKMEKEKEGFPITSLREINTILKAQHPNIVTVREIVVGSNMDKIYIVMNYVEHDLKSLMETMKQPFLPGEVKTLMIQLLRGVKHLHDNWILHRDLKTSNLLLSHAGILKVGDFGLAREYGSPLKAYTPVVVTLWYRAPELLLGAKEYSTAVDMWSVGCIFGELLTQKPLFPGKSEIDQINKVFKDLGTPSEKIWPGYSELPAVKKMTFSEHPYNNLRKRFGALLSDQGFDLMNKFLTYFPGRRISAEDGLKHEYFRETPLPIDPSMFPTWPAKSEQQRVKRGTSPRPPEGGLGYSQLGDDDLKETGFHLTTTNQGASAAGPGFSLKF
Chain of Cyclin-dependent kinase 3 (Homo sapiens) (Q00526 whole entry, looked up): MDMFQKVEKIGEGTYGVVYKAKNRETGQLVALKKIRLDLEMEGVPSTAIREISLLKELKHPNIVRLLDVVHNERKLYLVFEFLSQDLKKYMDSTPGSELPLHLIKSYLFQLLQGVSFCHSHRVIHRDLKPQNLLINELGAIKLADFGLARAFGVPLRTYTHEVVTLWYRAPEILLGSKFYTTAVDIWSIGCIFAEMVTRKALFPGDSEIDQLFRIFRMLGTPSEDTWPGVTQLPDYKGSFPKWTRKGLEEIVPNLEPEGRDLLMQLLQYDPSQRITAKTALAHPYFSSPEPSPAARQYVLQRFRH

SMILES: O=C1c2ccccc2-c2c1oc1ccccc1c2=O
- Activity [1]: 77%
- Activity [2]: 59%
- Activity [3]: 90%
- Activity [4]: 74%
- Activity [5]: 51%
- Activity [6]: 93%
- Activity [7]: 44%
- Activity [8]: 72%
- Activity [9]: 38%
- Activity [10]: 93%
- Activity [11]: 80%
- Activity [12]: 74%
- IC50 [13]: 55.8 µM
- Activity [14]: 34%
- Activity [15]: 66%
- Activity [16]: 77%
- IC50 [17]: 8.97 µM
- Activity [18]: 95%
- Activity [19]: 65%
- Activity [20]: 48%
- Activity [21]: 66%
- Activity [22]: 52%
- Activity [23]: 80%
- Activity [24]: 90%
- Activity [25]: 82%
- Activity [26]: 92%
- Activity [27]: 83%
- Activity [28]: 82%
- Activity [29]: 91%
- Activity [30]: 66%
- Activity [31]: 72%
- Activity [32]: 26%
